“And” between values parts separate entries of the source, which are not always exact repeats. Equal values may be shown once. Inconclusive results and toxic doses are left out. The calls were made as follows: active = survival T/C of 150% or more; inactive = T/C below 125% in these data.
Test system: P388 leukemia ip, CD2F1 mice, survival T/C
Assay: NCI In Vivo Anticancer Drug Screen. Data for tumor model P388 Leukemia (intraperitoneal) in CD2F1 (CDF1) mice
Settings: endpoint: median survival time, higher = longer survival
In short: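 Mice carrying the transplanted tumor received test compound or vehicle. Survival was recorded in each group, and the value is the treated-group measurement divided by that of the vehicle-treated control group.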

[1] = dose: 50.0 mg/kg/injection, schedule: Q01DX009 (ip), vehicle: saline with Tween-80
[2] = dose: 60.0 mg/kg/injection, schedule: Q01DX005 (ip), vehicle: Klucel (hydroxypropylcellulose) (HPC)
[3] = dose: 120.0 mg/kg/injection, schedule: Q01DX005 (ip), vehicle: Klucel (hydroxypropylcellulose) (HPC)
[4] = dose: 240.0 mg/kg/injection, schedule: Q01DX005 (ip), vehicle: Klucel (hydroxypropylcellulose) (HPC)
[5] = dose: 100.0 mg/kg/injection, schedule: Q04DX003 (ip), vehicle: saline
[6] = dose: 60.0 mg/kg/injection, schedule: Q01DX005 (ip), vehicle: saline with Tween-80
[7] = dose: 120.0 mg/kg/injection, schedule: Q01DX005 (ip), vehicle: saline with Tween-80
[8] = dose: 240.0 mg/kg/injection, schedule: Q01DX005 (ip), vehicle: saline with Tween-80

Measured: T/C

C=C1CCN(c2ccccc2Cl)C1=O
inactive: dose: 4.0 mg/kg/injection, schedule: Q01DX009 (ip), vehicle: saline + alcohol 100 % of control and 103 % of control and 109 % of control | dose: 8.0 mg/kg/injection, schedule: Q01DX009 (ip), vehicle: saline + alcohol 100 % of control and 104 % of control and 106 % of control | dose: 16.0 mg/kg/injection, schedule: Q01DX009 (ip), vehicle: saline + alcohol 100 % of control and 112 % of control | dose: 32.0 mg/kg/injection, schedule: Q01DX009 (ip), vehicle: saline + alcohol 99 % of control and 100 % of control and 107 % of control | dose: 64.0 mg/kg/injection, schedule: Q01DX009 (ip), vehicle: saline + alcohol 104 % of control and 105 % of control

c1ccc2c(c1)C1c3cccc[n+]3C2C2C1CC1C3c4ccccc4C(C12)[n+]1ccccc13 (stereo not drawn)
inactive: dose: 1.56 mg/kg/injection, schedule: Q01DX005 (ip), vehicle: saline with Tween-80 102 % of control | dose: 3.13 mg/kg/injection, schedule: Q01DX005 (ip), vehicle: saline with Tween-80 102 % of control | dose: 6.25 mg/kg/injection, schedule: Q01DX005 (ip), vehicle: saline with Tween-80 104 % of control and 94 % of control

CCN(CC)CCSC(=O)N1c2ccccc2Sc2ccc(Cl)cc21
inactive: dose: 3.12 mg/kg/injection, schedule: Q01DX009 (ip), vehicle: saline with Tween-80 96 % of control | dose: 6.25 mg/kg/injection, schedule: Q01DX009 (ip), vehicle: saline with Tween-80 104 % of control and 105 % of control | dose: 12.5 mg/kg/injection, schedule: Q01DX009 (ip), vehicle: saline with Tween-80 96 % of control | dose: 25.0 mg/kg/injection, schedule: Q01DX009 (ip), vehicle: saline with Tween-80 93 % of control | [1] 100 % of control

COc1ccc(-n2c(C)nc3c(cnn3CN3CCCCC3)c2=O)cc1
inactive: [2] 102 % of control | [3] 102 % of control | [4] 94 % of control

CN(C)c1ccc(C(=C2C=CC(=[N+](C)C)C=C2)c2ccc(N(C)C)cc2)cc1
inactive: dose: 0.19 mg/kg/injection, schedule: Q01DX009 (ip), vehicle: saline 108 % of control | dose: 0.39 mg/kg/injection, schedule: Q01DX009 (ip), vehicle: saline 123 % of control

COc1cc(N=Nc2ccccc2)cc(/C=N\NC(=S)Nc2ccc(C)cc2)c1O
inactive: dose: 50.0 mg/kg/injection, schedule: Q01DX005 (ip), vehicle: saline with Tween-80 94 % of control | dose: 100.0 mg/kg/injection, schedule: Q01DX005 (ip), vehicle: saline with Tween-80 96 % of control

CC12CCC3(C)OCC(CO)(CO1)N23 (stereo not drawn)
inactive: [1] 91 % of control | dose: 100.0 mg/kg/injection, schedule: Q01DX009 (ip), vehicle: saline with Tween-80 90 % of control | dose: 200.0 mg/kg/injection, schedule: Q01DX009 (ip), vehicle: saline with Tween-80 91 % of control

O=C1C2(CCCC13N=NCC3c1ccccc1)N=NCC2c1ccccc1 (stereo not drawn)
inactive: [2] 93 % of control | [3] 88 % of control | [4] 93 % of control

Nc1cccnc1N
inactive: dose: 2.5 mg/kg/injection, schedule: Q01DX009 (ip), vehicle: saline 98 % of control | dose: 3.12 mg/kg/injection, schedule: Q01DX009 (ip), vehicle: saline 106 % of control | dose: 5.0 mg/kg/injection, schedule: Q01DX009 (ip), vehicle: saline 98 % of control | dose: 6.25 mg/kg/injection, schedule: Q01DX009 (ip), vehicle: saline 106 % of control | dose: 10.0 mg/kg/injection, schedule: Q01DX009 (ip), vehicle: saline 105 % of control | dose: 12.5 mg/kg/injection, schedule: Q01DX009 (ip), vehicle: saline 92 % of control and 93 % of control | dose: 20.0 mg/kg/injection, schedule: Q01DX009 (ip), vehicle: saline 101 % of control

COCC/C=C/CCl
inactive: dose: 100.0 mg/kg/injection, schedule: Q04DX003 (ip), vehicle: saline with Tween-80 100 % of control | dose: 200.0 mg/kg/injection, schedule: Q04DX003 (ip), vehicle: saline with Tween-80 100 % of control | dose: 400.0 mg/kg/injection, schedule: Q04DX003 (ip), vehicle: saline with Tween-80 95 % of control

Cc1cc(C)n(-c2ccnc(-n3nc(C)cc3C)n2)n1
inactive: [5] 104 % of control | dose: 200.0 mg/kg/injection, schedule: Q04DX003 (ip), vehicle: saline 114 % of control | dose: 400.0 mg/kg/injection, schedule: Q04DX003 (ip), vehicle: saline 101 % of control

Brc1cc(Br)cc(CN2CCOCC2)c1
inactive: [6] 98 % of control | [7] 100 % of control | [8] 106 % of control

CC(N)CCC(C)(C)O (stereo not drawn)
inactive: dose: 25.0 mg/kg/injection, schedule: Q04DX003 (ip), vehicle: saline 100 % of control | dose: 50.0 mg/kg/injection, schedule: Q04DX003 (ip), vehicle: saline 90 % of control | [5] 100 % of control

Cc1cn(CCCn2cnc3c(=O)[nH]cnc32)c(=O)[nH]c1=O
inactive: [6] 92 % of control | [7] 101 % of control | [8] 88 % of control
